Data reported in patent US10987349B2, “Antitumor agent and bromodomain inhibitor” (FUJIFILM Corporation, priority 2016, dated 2021).

Tests used:
BRD2 BD1 = biological target: T1, BRD2 BD1 (Homo sapiens, UniProt P25440); experiment: Binding assay, BRD2 BD1 to acetylated histone H4 Peptide-Biotin (EPIgeneous Binding Domain Kit A); conditions: test compound at 300 nmol/L; for inhibition at 0.3 µM: read-out: Binding inhibition percentage BRD2 BD1
T1 construct: BRD2 BD1, BRD3 BD1 and BRD4 BD1 (Cisbio); purchased Cisbio
Method: (§1) BRD2 BD1, BRD3 BD1 and BRD4 BD1 (Cisbio), [Lys(Ac)5/8/12/16]-Histone H4(1-25)-GSGSK (Biotin) (hereinafter referred to as “Peptide-Biotin,” AnaSpec), and EPIgeneous (registered trademark) Binding Domain Kit A (Cisbio) were used to carry out an assay. That is to say, per well, 4 μL of BRD2 BD1, BRD3 BD1 or BRD4 BD1, which was adjusted to 20 nmol/L with Diluent buffer; 4 μL of 25 nmol/L Peptide-Biotin; 2 μL of Dilution buffer (Cisbio) containing dimethyl sulfoxide (DMSO) or a test compound that was serially diluted with DMSO; 5 μL of 2.5 nmol/L Streptavidin-d2; and 5 μL of Anti-Gst-Eu+^3+ Cryptate Conjugate 50-fold diluted with Detection Buffer were added to a 384-well plate (Corning).
(§2) The obtained mixture was left at rest at room temperature for 20 hours, and thereafter, the fluoresence intensity at 665 nm and 620 nm was measured using Envision plate reader (Perkin Elmer), so that the inhibition percentage (%) of the test compound against the binding of a bromodomain in a bromodomain-containing protein to Peptide-Biotin was calculated. Binding inhibition percentage (%)=[1−{(fluorescence intensity at 665 nm of test compound−added well)/(fluorescence intensity at 620 nm of test compound−added well)}/{(fluorescence intensity at 665 nm of DMSO−added well)/(fluorescence intensity at 665 nm of DMSO−added well)}]×100
(§3) Moreover, using Graphpad prism 5 (GraphPad software), 50% inhibitory concentration [IC50 (nmol/L)] was calculated according to a non-linear regression analysis (log (inhibitor) vs. response—Variable slope (four parameters)).
(§4) Regarding other test compounds, each compound was diluted with DMSO to a final concentration of 300 nmol/L by the same method as that described above, and the binding inhibition percentage (%) of each test compound at 300 nmol/L against the binding of bromodomain in a bromodomain-containing protein to acetylated histone was calculated.

BRD4 BD1 = biological target: T2, BRD4 BD1 (Homo sapiens, UniProt O60885); experiment: Binding assay, BRD4 BD1 to acetylated histone H4 Peptide-Biotin (EPIgeneous Binding Domain Kit A); conditions: test compound at 300 nmol/L; for inhibition at 0.3 µM: read-out: Binding inhibition percentage BRD4 BD1
T2 construct: BRD2 BD1, BRD3 BD1 and BRD4 BD1 (Cisbio); purchased Cisbio
Method: as §1, §2, §3, §4

BRD3 BD1 = biological target: T3, BRD3 BD1 (Homo sapiens, UniProt Q15059); experiment: Binding assay, BRD3 BD1 to acetylated histone H4 Peptide-Biotin (EPIgeneous Binding Domain Kit A); conditions: test compound at 300 nmol/L; for inhibition at 0.3 µM: read-out: Binding inhibition percentage BRD3 BD1
T3 construct: BRD2 BD1, BRD3 BD1 and BRD4 BD1 (Cisbio); purchased Cisbio
Method: as §1, §2, §3, §4

BRD3 BD2 = biological target: T4, BRD3 BD2 (Homo sapiens, UniProt Q15059); experiment: Binding assay, BRD3 BD2 to acetylated histone H4 Peptide-Biotin (EPIgeneous Binding Domain Kit B); conditions: test compound at 300 nmol/L; for inhibition at 0.3 µM: read-out: Binding inhibition percentage BRD3 BD2
T4 construct: BRD2 BD2, BRD3 BD2 and BRD4 BD2 (Cisbio); purchased Cisbio
Method: (§5) Moreover, BRD2 BD2, BRD3 BD2 and BRD4 BD2 (Cisbio), Peptide-Biotin (AnaSpec), and EPIgeneous (registered trademark) Binding Domain Kit B (Cisbio) were used to carry out an assay. That is, per well, 4 μL of BRD2 BD2, BRD3 BD2 or BRD4 BD2, which was adjusted to 20 nmol/L with Diluent buffer; 4 μL of 250 nmol/L Peptide-Biotin; 2 μL of Dilution buffer (Cisbio) containing DMSO or a test compound that was serially diluted with DMSO; 5 μL of 25 nmol/L Streptavidin-XL665; 5 μL of Anti-Gst-Eu+^3+ Cryptate Conjugate 50-fold diluted with Detection Buffer were added to a 384-well plate (Corning).
as §2, §3, §4

BRD4 BD2 = biological target: T5, BRD4 BD2 (Homo sapiens, UniProt O60885); experiment: Binding assay, BRD4 BD2 to acetylated histone H4 Peptide-Biotin (EPIgeneous Binding Domain Kit B); conditions: test compound at 300 nmol/L; for inhibition at 0.3 µM: read-out: Binding inhibition percentage BRD4 BD2
T5 construct: BRD2 BD2, BRD3 BD2 and BRD4 BD2 (Cisbio); purchased Cisbio
Method: as §5, §2, §3, §4

BRD2 BD2 = biological target: T6, BRD2 BD2 (Homo sapiens, UniProt P25440); experiment: Binding assay, BRD2 BD2 to acetylated histone H4 Peptide-Biotin (EPIgeneous Binding Domain Kit B); conditions: test compound at 300 nmol/L; for inhibition at 0.3 µM: read-out: Binding inhibition percentage BRD2 BD2
T6 construct: BRD2 BD2, BRD3 BD2 and BRD4 BD2 (Cisbio); purchased Cisbio
Method: as §5, §2, §3, §4

T1 sequence (P25440 74-180 limits assumed): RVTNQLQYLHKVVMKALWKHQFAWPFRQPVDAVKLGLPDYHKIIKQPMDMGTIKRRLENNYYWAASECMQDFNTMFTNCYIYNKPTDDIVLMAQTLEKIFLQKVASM
T6 sequence (P25440 344-453 limits assumed): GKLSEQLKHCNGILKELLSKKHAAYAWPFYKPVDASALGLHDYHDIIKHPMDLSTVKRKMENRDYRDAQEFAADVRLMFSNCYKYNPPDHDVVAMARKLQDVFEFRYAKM
T4 sequence (Q15059 306-415 limits assumed): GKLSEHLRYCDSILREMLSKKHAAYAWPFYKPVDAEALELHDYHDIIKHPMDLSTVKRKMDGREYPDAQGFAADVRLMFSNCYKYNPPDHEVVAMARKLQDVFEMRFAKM
T3 sequence (Q15059 34-140 limits assumed): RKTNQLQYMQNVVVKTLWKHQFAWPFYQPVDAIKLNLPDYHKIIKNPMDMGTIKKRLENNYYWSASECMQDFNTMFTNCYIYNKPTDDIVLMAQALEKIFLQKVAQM

SMILES | inhibition at 0.3 µM (BRD2 BD1) | inhibition at 0.3 µM (BRD4 BD1) | inhibition at 0.3 µM (BRD3 BD1) | inhibition at 0.3 µM (BRD3 BD2) | inhibition at 0.3 µM (BRD4 BD2) | inhibition at 0.3 µM (BRD2 BD2) | Binding inhibition percentage BRD2 BD1 (BRD2 BD1) | Binding inhibition percentage BRD4 BD1 (BRD4 BD1) | Binding inhibition percentage BRD3 BD1 (BRD3 BD1) | Binding inhibition percentage BRD3 BD2 (BRD3 BD2) | Binding inhibition percentage BRD4 BD2 (BRD4 BD2) | Binding inhibition percentage BRD2 BD2 (BRD2 BD2)
CCn1c(=O)cc(C2CC2)c2cc(-n3c(-c4ccc(Cl)cc4)c[nH]c3=O)ccc21 [Example 271, 6-(5-(4-chlorophenyl)-2-oxo-2,3-dihydro-1H-imidazol-1-yl)-4-cyclopropyl-1-ethylquinolin-2(1H)-one] | 60% | 77% | 72% | 92% | 88% | 88% |  |  |  |  |  | 
CCn1c(=O)cc(N2CCOCC2)c2cc(-n3c(-c4ccc(C(F)(F)F)cc4)c[nH]c3=O)ccc21 [Example 272, 1-ethyl-6-(2-oxo-5-(4-(trifluoromethyl)phenyl)-2,3-dihydro-1H-imidazol-1-yl)-4-(morpholin-4-yl)quinolin-2(1H)-one] | 87% | 93% | 93% | 91% | 90% | 89% |  |  |  |  |  | 
CCn1c(=O)cc(N2CCOCC2)c2cc(-n3c(-c4ccc(C)cc4)cn(C)c3=O)ccc21 [Example 273, 1-ethyl-6-(3-methyl-5-(4-methylphenyl)-2-oxo-2,3-dihydro-1H-imidazol-1-yl)-4-(morpholin-4-yl)quinolin-2(1H)-one] | 93% | 94% | 94% | 93% | 89% | 90% |  |  |  |  |  | 
CCn1c(=O)cc(C2CC2)c2cc(-c3cccnc3-c3ccccc3)ccc21 [Example 278, 4-cyclopropyl-1-ethyl-6-(2-phenylpyridin-3-yl)quinolin-2(1H)-one] | 83% | 93% | 94% | 91% | 89% | 89% |  |  |  |  |  | 
CCn1c(=O)cc(N2CCOCC2)c2cc(-c3cccnc3-c3ccccc3)ccc21 [Example 279, 1-ethyl-4-(morpholin-4-yl)-6-(2-phenylpyridin-3-yl)quinolin-2(1H)-one] | 91% | 93% | 93% | 91% | 89% | 88% |  |  |  |  |  | 
CCn1c(=O)cc(C2CC2)c2cc(N3C(=O)C(C)C(=O)N3c3ccccc3)ccc21 (stereo not drawn) [Example 280, 1-(4-cyclopropyl-1-ethyl-2-oxo-1,2-dihydroquinolin-6-yl)-4-methyl-2-phenylpyrazolidine-3,5-dione] | 83% | 93% | 90% | 92% | 90% | 88% |  |  |  |  |  | 
CCC1C(=O)N(c2ccccc2)N(c2ccc3c(c2)c(C2CC2)cc(=O)n3CC)C1=O (stereo not drawn) [Example 281, 1-(4-cyclopropyl-1-ethyl-2-oxo-1,2-dihydroquinolin-6-yl)-4-ethyl-2-phenylpyrazolidine-3,5-dione] | 87% | 94% | 92% | 91% | 88% | 89% |  |  |  |  |  | 
CCn1c(=O)cc(C2CC2)c2cc(-n3c(=O)cc(C)n3-c3ccccc3)ccc21 [Example 282a, 4-Cyclopropyl-1-ethyl-6-(3-methyl-5-oxo-2-phenyl-2,5-dihydro-1H-pyrazol-1-y 1)quinolin-2(1H)-one] |  |  |  |  |  |  | 94% | 95% | 94% | 91% | 89% | 90%
